# Results: patent US20090069320A1, “Substituted 4-Amino-Quinazoline Compounds with Metabotropic Glutamate Receptor Regulating Activity and Uses Thereof” (Gruenenthal GmbH, priority 2006, published 2009)
# Structures can show the parent of a compound that is named as a salt.
# Molecular target: T1, mGluR5 receptor (Sus scrofa, UniProt I3LUI7)
# T1 construct: 450 μg of protein from brain homogenate with 5 nM ^3[H]-MPEP; from tissue; host or cells: pig brain halves without medulla, cerebellum and pons
# T1 sequence (I3LUI7 19-1212): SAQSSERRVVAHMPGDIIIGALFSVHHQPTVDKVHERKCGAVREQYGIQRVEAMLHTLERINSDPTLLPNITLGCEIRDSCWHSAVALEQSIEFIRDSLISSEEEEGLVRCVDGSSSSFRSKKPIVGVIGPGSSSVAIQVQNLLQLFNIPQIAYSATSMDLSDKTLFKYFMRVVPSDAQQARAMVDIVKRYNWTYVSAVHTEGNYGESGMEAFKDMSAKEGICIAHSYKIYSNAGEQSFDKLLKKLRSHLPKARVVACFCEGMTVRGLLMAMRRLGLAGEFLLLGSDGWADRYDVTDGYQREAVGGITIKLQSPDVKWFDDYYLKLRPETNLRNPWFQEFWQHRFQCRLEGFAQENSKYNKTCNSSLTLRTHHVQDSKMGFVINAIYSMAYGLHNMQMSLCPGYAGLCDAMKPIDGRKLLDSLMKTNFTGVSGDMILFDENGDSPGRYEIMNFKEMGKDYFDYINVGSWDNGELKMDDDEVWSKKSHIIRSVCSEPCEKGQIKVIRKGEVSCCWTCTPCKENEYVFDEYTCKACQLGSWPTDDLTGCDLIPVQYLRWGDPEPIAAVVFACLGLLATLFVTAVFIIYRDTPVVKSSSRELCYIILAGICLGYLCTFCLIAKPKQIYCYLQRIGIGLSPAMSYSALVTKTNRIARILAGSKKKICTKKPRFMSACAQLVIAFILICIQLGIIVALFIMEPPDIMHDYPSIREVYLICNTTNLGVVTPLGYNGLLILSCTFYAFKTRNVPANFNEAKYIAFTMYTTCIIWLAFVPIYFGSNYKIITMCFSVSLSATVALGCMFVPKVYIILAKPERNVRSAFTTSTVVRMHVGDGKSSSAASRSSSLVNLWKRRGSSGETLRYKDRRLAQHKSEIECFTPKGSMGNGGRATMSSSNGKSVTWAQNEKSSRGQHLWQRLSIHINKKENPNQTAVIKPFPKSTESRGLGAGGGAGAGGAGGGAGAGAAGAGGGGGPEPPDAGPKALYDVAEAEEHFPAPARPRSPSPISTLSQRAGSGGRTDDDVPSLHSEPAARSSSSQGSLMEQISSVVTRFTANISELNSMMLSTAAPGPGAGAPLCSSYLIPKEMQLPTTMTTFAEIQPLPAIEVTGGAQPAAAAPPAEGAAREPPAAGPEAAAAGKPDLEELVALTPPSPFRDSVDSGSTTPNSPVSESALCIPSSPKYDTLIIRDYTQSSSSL
# Assay: [3H]-MPEP mGluR5 receptor binding assay (pig brain homogenate)
# Settings: 5 nM [3H]-MPEP, read-out: IC50 mGluR5 Receptor (pig) [^3H]-MPEP Bond
# Outline: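 Radioligand displacement of 5 nM [3H]-MPEP from pig brain homogenate (450 μg protein; medulla, cerebellum and pons removed) in 20 mM Hepes pH 8.0. Compounds were tested at 10 μM, incubated 60 min at room temperature, then filtered and counted by scintillation. Non-specific binding was defined with 10 μM MPEP.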
row,Compound,IC50 [µM]
1,"Fc1ccc(-c2ccc3ncnc(NC4CC4)c3c2)c(F)c1CNC1CC1 [Example 304, N-cyclopropyl-6-(3-((cyclopropylamino)methyl)-2,4-difluorophenyl)quinazoline-4-amine]",3.11
2,"CC(C)(C)Nc1ncnc2ccc(-c3ccc(F)c(CNC4CC4)c3)cc12 [Example 322, N-tert-butyl-6-(3-((cyclopropylamino)methyl)-4-fluorophenyl)quinazoline-4-amine]",2.98
3,"COCC(=O)N(Cc1cc(-c2ccc3ncnc(NC4CC4)c3c2)ccc1F)C1CC1 [Example 390, N-cyclopropyl-N-(5-(4-(cyclopropylamino)quinazolin-6-yl)-2-fluorobenzyl)-2-methoxyacetamide]",0.07

# Same assay, conditions: 10 μM compound, 5 nM [3H]-MPEP
row,Compound,% Inhibition of mGluR5 Receptor (pig) [^3H]-MPEP Bond at 10 μM [%]
1,"O=S(=O)(c1ccccc1)N(Cc1cc(-c2ccc3ncnc(NC4CC4)c3c2)ccc1F)C1CC1 [Example 368, N-cyclopropyl-N-(5-(4-(cyclopropylamino)quinazolin-6-yl)-2-fluorobenzyl)benzole sulfonamide]",85
2,"O=S(=O)(c1cccc(C(F)(F)F)c1)N(Cc1cc(-c2ccc3ncnc(NC4CC4)c3c2)ccc1F)C1CC1 [Example 375, N-cyclopropyl-N-(5-(4-(cyclopropylamino)quinazolin-6-yl)-2-fluorobenzyl)-3-(trifluoromethyl)benzole sulfonamide]",34
3,"COc1ccc(S(=O)(=O)N(Cc2cc(-c3ccc4ncnc(NC5CC5)c4c3)ccc2F)C2CC2)cc1 [Example 383, N-cyclopropyl-N-(5-(4-(cyclopropylamino)quinazolin-6-yl)-2-fluorobenzyl)-4-methoxybenzole sulfonamide]",69
4,"O=S(=O)(c1ccc(Cl)cc1Cl)N(Cc1cc(-c2ccc3ncnc(NC4CC4)c3c2)ccc1F)C1CC1 [Example 391, 2,4-dichloro-N-cyclopropyl-N-(5-(4-(cyclopropylamino)quinazolin-6-yl)-2-fluorobenzyl)benzole sulfonamide]",74
5,"O=S(=O)(c1c(F)c(F)c(F)c(F)c1F)N(Cc1cc(-c2ccc3ncnc(NC4CC4)c3c2)ccc1F)C1CC1 [Example 399, N-cyclopropyl-N-(5-(4-(cyclopropylamino)quinazolin-6-yl)-2-fluorobenzyl)-2,3,4,5,6-pentafluorobenzole sulfonamide]",39

# Same assay, conditions: 10 μM compound, 5 nM [3H]-MPEP, read-out: % Inhibition of mGluR5 Receptor (pig) [^3H]-MPEP Bond at 10 μM
row,Compound,inhibition at 10 µM [%]
1,"c1nc(NC2CC2)c2cc(-c3csc(CNC4CC4)c3)ccc2n1 [Example 300, N-cyclopropyl-6-(5-((cyclopropylamino)methyl)thiophen-3-yl)quinazoline-4-amine]",51
2,"Cc1cc(CNC2CC2)cc(-c2ccc3ncnc(NC4CC4)c3c2)c1 [Example 306, N-cyclopropyl-6-(3-((cyclopropylamino)methyl)-5-methylphenyl)quinazoline-4-amine]",33
3,"CC(NC1CC1)c1cccc(-c2ccc3ncnc(NC4CC4)c3c2)c1 (stereo not drawn) [Example 307, N-cyclopropyl-6-(3-(1-(cyclopropylamino)ethyl)phenyl)quinazoline-4-amine]",37
4,"CCCCNCc1cccc(-c2ccc3ncnc(NC4CC4)c3c2)c1 [Example 310, 6-(3-((butylamino)methyl)phenyl)-N-cyclopropylquinazoline-4-amine]",50
5,"c1cc(CNCc2ccco2)cc(-c2ccc3ncnc(NC4CC4)c3c2)c1 [Example 312, N-cyclopropyl-6-(3-((furan-2-ylmethylamino)methyl)phenyl)quinazoline-4-amine dihydrochloride]",58
6,"N#CCNCc1cccc(-c2ccc3ncnc(NC4CC4)c3c2)c1 [Example 320, 2-(3-(4-(cyclopropylamino)quinazolin-6-yl)benzylamino)acetonitrile]",72
7,"Fc1c(CNC2CC2)cccc1-c1ccc2ncnc(NC3CC3)c2c1 [Example 324, N-cyclopropyl-6-(3-((cyclopropylamino)methyl)-2-fluorophenyl)quinazoline-4-amine]",55
8,"O=C(O)CCC(=O)NCc1cccc(-c2ccc3ncnc(Nc4ccccc4)c3c2)c1 [Example 329, 4-oxo-4-(3-(4-(phenylamino)quinazolin-6-yl)benzylamino)butyric acid]",57
9,"O=C(O)CCC(=O)NCc1cccc(-c2ccc3ncnc(NCC(=O)O)c3c2)c1 [Example 330, 4-(3-(4-(carboxymethylamino)quinazolin-6-yl)benzylamino)-4-oxobutyric acid]",47
10,"COc1ccc(C(=O)N(Cc2cc(-c3ccc4ncnc(NC5CC5)c4c3)ccc2F)C2CC2)cc1OC [Example 366, N-cyclopropyl-N-(5-(4-(cyclopropylamino)quinazolin-6-yl)-2-fluorobenzyl)-3,4-dimethoxybenzamide]",90
11,"O=C(c1cccnc1)N(Cc1cc(-c2ccc3ncnc(NC4CC4)c3c2)ccc1F)C1CC1 [Example 367, N-cyclopropyl-N-(5-(4-(cyclopropylamino)quinazolin-6-yl)-2-fluorobenzyl)nicotinamide]",94
12,"Cc1cc(C(=O)N(Cc2cccc(-c3ccc4ncnc(NCCc5ccccc5)c4c3)c2)C2CC2)n(C)n1 [Example 369, N-cyclopropyl-1,3-dimethyl-N-(3-(4-(phenethylamino)quinazolin-6-yl)benzyl)-1H-pyrazole-5-carboxamide]",34
13,"O=C(c1ccccn1)N(Cc1cccc(-c2ccc3ncnc(NCCc4ccccc4)c3c2)c1)C1CC1 [Example 370, N-cyclopropyl-N-(3-(4-(phenethylamino)quinazolin-6-yl)benzyl)picolinamide]",52
14,"O=C(c1cccc(F)c1)N(Cc1cc(-c2ccc3ncnc(NC4CC4)c3c2)ccc1F)C1CC1 [Example 374, N-cyclopropyl-N-(5-(4-(cyclopropylamino)quinazolin-6-yl)-2-fluorobenzyl)-3-fluorobenzamide]",91
15,"O=C(c1ccncc1)N(Cc1cccc(-c2ccc3ncnc(NCCc4ccccc4)c3c2)c1)C1CC1 [Example 377, N-cyclopropyl-N-(3-(4-(phenethylamino)quinazolin-6-yl)benzyl)isonicotinamide]",59
16,"Cc1cccc(CNc2ncnc3ccc(-c4cccc(CN(C5CC5)S(C)(=O)=O)c4)cc23)c1 [Example 380, N-cyclopropyl-N-(3-(4-(3-methylbenzylamino)quinazolin-6-yl)benzyl)methane sulfonamide]",46
17,"O=C(c1ccc(F)cc1F)N(Cc1cc(-c2ccc3ncnc(NC4CC4)c3c2)ccc1F)C1CC1 [Example 381, N-cyclopropyl-N-(5-(4-(cyclopropylamino)quinazolin-6-yl)-2-fluorobenzyl)-2,4-difluorobenzamide]",90
18,"CCCCC(=O)N(Cc1cc(-c2ccc3ncnc(NC4CC4)c3c2)ccc1F)C1CC1 [Example 382, N-cyclopropyl-N-(5-(4-(cyclopropylamino)quinazolin-6-yl)-2-fluorobenzyl)pentanamide]",89
19,"O=C(c1cccnc1)N(Cc1cccc(-c2ccc3ncnc(NCCc4ccccc4)c3c2)c1)C1CC1 [Example 385, N-cyclopropyl-N-(3-(4-(phenethylamino)quinazolin-6-yl)benzyl)nicotinamide]",35
20,"O=C(c1c(F)c(F)c(F)c(F)c1F)N(Cc1cc(-c2ccc3ncnc(NC4CC4)c3c2)ccc1F)C1CC1 [Example 389, N-cyclopropyl-N-(5-(4-(cyclopropylamino)quinazolin-6-yl)-2-fluorobenzyl)-2,3,4,5,6-pentafluorobenzamide]",91
21,"CC(=O)N(Cc1cccc(-c2ccc3ncnc(NCCc4ccccc4)c3c2)c1)C1CC1 [Example 393, N-cyclopropyl-N-(3-(4-(phenethylamino)quinazolin-6-yl)benzyl)acetamide]",95
22,"Cc1cccc(CNc2ncnc3ccc(-c4cccc(CN(C(=O)c5ccccn5)C5CC5)c4)cc23)c1 [Example 395, N-cyclopropyl-N-(3-(4-(3-methylbenzylamino)quinazolin-6-yl)benzyl)picolinamide]",44
23,"O=C(c1ccc(C(F)(F)F)cc1F)N(Cc1cc(-c2ccc3ncnc(NC4CC4)c3c2)ccc1F)C1CC1 [Example 397, N-cyclopropyl-N-(5-(4-(cyclopropylamino)quinazolin-6-yl)-2-fluorobenzyl)-2-fluoro-4-(trifluoromethyl)benzamide]",87
24,"CN(C)CC(=O)N(Cc1cc(-c2ccc3ncnc(NC4CC4)c3c2)ccc1F)C1CC1 [Example 398, N-cyclopropyl-N-(5-(4-(cyclopropylamino)quinazolin-6-yl)-2-fluorobenzyl)-2-(dimethylamino)acetamide]",63
25,"CC(C)(C)C(=O)N(Cc1cccc(-c2ccc3ncnc(NCCc4ccccc4)c3c2)c1)C1CC1 [Example 401, N-cyclopropyl-N-(3-(4-(phenethylamino)quinazolin-6-yl)benzyl)pivalamide]",36
26,"Cc1cccc(CNc2ncnc3ccc(-c4cccc(CN(C(=O)c5cc(C)nn5C)C5CC5)c4)cc23)c1 [Example 402, N-cyclopropyl-1,3-dimethyl-N-(3-(4-(3-methylbenzylamino)quinazolin-6-yl)benzyl)-1H-pyrazole-5-carboxamide]",34
27,"Cc1cccc(CNc2ncnc3ccc(-c4cccc(CN(C(=O)c5ccncc5)C5CC5)c4)cc23)c1 [Example 403, N-cyclopropyl-N-(3-(4-(3-methylbenzylamino)quinazolin-6-yl)benzyl)isonicotinamide]",40

# Same assay, conditions: IC50 mGluR5 Receptor (pig) [^3H]-MPEP Bond, 5 nM [3H]-MPEP
row,Compound,IC50 [µM]
1,"ClCCNCc1cccc(-c2ccc3ncnc(NC4CC4)c3c2)c1 [Example 315, 6-(3-((2-chloroethylamino)methyl)phenyl)-N-cyclopropylquinazoline-4-amine]",2.74
